# Test results published in US10323038B2, “Pyrazole compounds and methods of making and using same” (ABIDE THERAPEUTICS, INC., priority 2015, dated 2019).
# What was measured:
# MAGL = MAGL (Mus musculus (Mouse), UniProt O35678); assay: In vitro competitive activity-based protein profiling, MAGL (mouse); assay type: biochemical; details: for inhibition at 1 µM: read-out: MAGL % inh. 1 μM (mouse)
# Experimental: (§1) In Vitro Competitive Activity-Based Protein Profiling.
# (§2) Proteomes (mouse brain membrane fraction or cell lysates for mouse assays; human prefrontal cortex or cell membrane fractions for human assays) (50 μL, 1.0 mg/mL total protein concentration) were preincubated with varying concentrations of inhibitors at 37° C. After 30 min, FP—Rh or HT-01 (1.0 μL, 50 μM in DMSO) was added and the mixture was incubated for another 30 min at 37° C. Reactions were quenched with SDS loading buffer (15 μL-4×) and run on SDS-PAGE. Following gel imaging, serine hydrolase activity was determined by measuring fluorescent intensity of gel bands corresponding to MAGL and FAAH using ImageJ 1.43u software.
# FAAH = FAAH (Mus musculus (Mouse), UniProt O08914); assay: In vitro competitive activity-based protein profiling, FAAH (mouse); assay type: biochemical; details: for inhibition at 1 µM: read-out: FAAH % inh. 1 μM (mouse)
# Experimental: as §1, §2
# FAAH, sequence (O08914 whole entry): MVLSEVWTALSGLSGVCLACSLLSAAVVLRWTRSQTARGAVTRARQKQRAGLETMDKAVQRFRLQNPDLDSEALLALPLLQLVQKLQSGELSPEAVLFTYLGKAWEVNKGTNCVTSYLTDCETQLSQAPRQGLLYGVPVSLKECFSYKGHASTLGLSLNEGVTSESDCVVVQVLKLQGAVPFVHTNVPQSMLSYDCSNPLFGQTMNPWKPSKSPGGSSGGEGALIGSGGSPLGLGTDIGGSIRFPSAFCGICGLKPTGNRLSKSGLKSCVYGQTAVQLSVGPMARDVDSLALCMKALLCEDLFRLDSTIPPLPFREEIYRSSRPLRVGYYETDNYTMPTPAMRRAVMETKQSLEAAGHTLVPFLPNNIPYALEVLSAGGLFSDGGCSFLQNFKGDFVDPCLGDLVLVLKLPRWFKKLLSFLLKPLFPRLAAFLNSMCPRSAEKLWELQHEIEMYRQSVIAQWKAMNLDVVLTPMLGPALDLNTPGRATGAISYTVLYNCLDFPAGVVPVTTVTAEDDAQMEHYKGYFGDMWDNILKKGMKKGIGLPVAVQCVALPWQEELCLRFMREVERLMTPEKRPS
# MAGL, sequence (O35678 whole entry): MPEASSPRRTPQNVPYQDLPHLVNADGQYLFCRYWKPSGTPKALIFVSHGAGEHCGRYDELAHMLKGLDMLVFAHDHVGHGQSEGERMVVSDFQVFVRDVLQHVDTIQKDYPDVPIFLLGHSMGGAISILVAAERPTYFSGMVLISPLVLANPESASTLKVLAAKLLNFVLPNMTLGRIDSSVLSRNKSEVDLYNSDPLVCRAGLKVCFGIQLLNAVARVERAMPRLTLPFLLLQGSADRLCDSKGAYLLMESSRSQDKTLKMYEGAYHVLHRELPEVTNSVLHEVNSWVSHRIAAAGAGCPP
IC50 (MAGL) [µM],inhibition at 1 µM (MAGL; 1 μM) [%],IC50 (FAAH) [µM],inhibition at 1 µM (FAAH; 1 μM) [%],Compound,MAGL % inh. 1 μM (mouse) (MAGL; 1 μM),FAAH % inh. 1 μM (mouse) (FAAH; 1 μM)
≤ 0.1,50 to 75,1 to 10,≥ 75,"CS(=O)(=O)Nc1cnn(C(=O)N2CCN(Cc3cc(Cl)ccc3C(F)(F)F)CC2)c1 [Example 293, N-(1-(4-(5-chloro-2-(trifluoromethyl)benzyl)piperazine-1-carbonyl)-1H-pyrazol-4-yl)methanesulfonamide]",,
0.1 to 1,≥ 75,≤ 0.1,≥ 75,"CC(=O)N(C)c1cnn(C(=O)N2CCC3(CCN(Cc4cccc(Cl)c4C)C3)C2)c1 (stereo not shown) [Example 57, N-(1-(7-(3-chloro-2-methylbenzyl)-2,7-diazaspiro[4.4]nonane-2-carbonyl)-1H-pyrazol-4-yl)-N-methylacetamide]",,
,≥ 75,,≥ 75,"CC(=O)N(C)c1cnn(C(=O)N2CC3CN(Cc4ccc(N5CCCC5)cc4Cl)CC3C2)c1 (stereo not shown) [Example 132, N-(1-(5-(2-chloro-4-(pyrrolidin-1-yl)benzyl)octahydropyrrolo[3,4-c]pyrrole-2-carbonyl)-1H-pyrazol-4-yl)-N-methylacetamide]",,
,≥ 75,,0 to 25,"CC(=O)N(C)c1cnn(C(=O)N2C[C@H]3C[C@H](N(Cc4cccc(Cl)c4)C(C)=O)C[C@H]3C2)c1 [Example 173, N-(3-chlorobenzyl)-N-(trans-2-(4-(N-methylacetamido)-1H-pyrazole-1-carbonyl)octahydrocyclopenta[c]pyrrol-5-yl)acetamide]",,
,≥ 75,,50 to 75,"CC(=O)N(C)c1cnn(C(=O)N2CC3CN(Cc4ccc(N5C[C@@H]6C[C@H]5CN6C)cc4C(F)(F)F)CC3C2)c1 (stereo partly drawn) [Example 250, N-methyl-N-(1-(5-(4-((1S,4S)-5-methyl-2,5-diazabicyclo[2.2.1]heptan-2-yl)-2-(trifluoromethyl)benzyl)octahydropyrrolo [3,4-c]pyrrole-2-carbonyl)-1H-pyrazol-4-yl)acetamide]",,
0.1 to 1,≥ 75,≤ 0.1,≥ 75,"CC(=O)N(C)c1cnn(C(=O)N2CCC3(CCN(Cc4cc(Cl)cc(Cl)c4)C3)C2)c1 (stereo not shown) [Example 53, N-(1-(7-(3,5-dichlorobenzyl)-2,7-diazaspiro[4.4]nonane-2-carbonyl)-1H-pyrazol-4-yl)-N-methylacetamide]",,
,≥ 75,,25 to 50,"CC(=O)N(C)c1cnn(C(=O)N2C[C@H]3C[C@@H](N(Cc4ccccc4Cl)C(C)=O)C[C@H]3C2)c1 [Example 169, N-(2-chlorobenzyl)-N-(cis-2-(4-(N-methylacetamido)-1H-pyrazole-1-carbonyl)octahydrocyclopenta[c]pyrrol-5-yl)acetamide]",,
≤ 0.1,≥ 75,≤ 0.1,≥ 75,"CC(=O)N(C)c1cnn(C(=O)N2CC3CN(Cc4ccc(C(F)(F)F)cc4)CC3C2)c1 (stereo not shown) [Example 14, N-methyl-N-(1-(5-(4-(trifluoromethyl)benzyl)octahydropyrrolo[3,4-c]pyrrole-2-carbonyl)-1H-pyrazol-4-yl)acetamide]",,
,≥ 75,,≥ 75,"CS(=O)(=O)Nc1cnn(C(=O)N2CCC3(CCN(Cc4ccc(N5CCCC5)cc4C(F)(F)F)C3)CC2)c1 [Example 280, N-(1-(2-(4-(pyrrolidin-1-yl)-2-(trifluoromethyl)benzyl)-2,8-diazaspiro[4.5]decane-8-carbonyl)-1H-pyrazol-4-yl)methanesulfonamide]",,
≤ 0.1,≥ 75,≤ 0.1,≥ 75,"CC(=O)N(C)c1cnn(C(=O)N2CCC3(CC2)CN(Cc2ccc(Cl)c(Cl)c2)C3)c1 [Example 24, N-(1-(2-(3,4-dichlorobenzyl)-2,7-diazaspiro[3.5]nonane-7-carbonyl)-1H-pyrazol-4-yl)-N-methylacetamide]",,
≤ 0.1,≥ 75,≤ 0.1,≥ 75,"CC(=O)N(C)c1cnn(C(=O)N2C[C@H]3C[C@H](N(C)Cc4ccccc4Cl)C[C@H]3C2)c1 [Example 145, N-(1-(trans-5-((2-chlorobenzyl)(methyl)amino)octahydrocyclopenta[c]pyrrole-2-carbonyl)-1H-pyrazol-4-yl)-N-methylacetamide]",,
,≥ 75,,≥ 75,"CC(=O)N(C)c1cnn(C(=O)N2CC3CN(Cc4ccc(OC5CCN(C6CC6)CC5)cc4Cl)CC3C2)c1 (stereo not shown) [Example 270, N-(1-(5-(2-chloro-4-((1-cyclopropylpiperidin-4-yl)oxy)benzyl)octahydropyrrolo[3,4-c]pyrrole-2-carbonyl)-1H-pyrazol-4-yl)-N-methylacetamide]",,
0.1 to 1,≥ 75,≤ 0.1,≥ 75,"COc1cc(-c2ccccc2)ccc1CN1CCN(C(=O)n2cc(NS(C)(=O)=O)cn2)CC1 [Example 220, N-(1-(4-((3-methoxy-[1,1′-biphenyl]-4-yl)methyl)piperazine-1-carbonyl)-1H-pyrazol-4-yl)methanesulfonamide]",,
,≥ 75,,≥ 75,"CC(=O)N(C)c1cnn(C(=O)N2C[C@H]3C[C@H](N(C)Cc4cc(N5CCCC5)cc(C(F)(F)F)c4)C[C@H]3C2)c1 [Example 160, N-methyl-N-(1-(trans-5-(methyl(3-(pyrrolidin-1-yl)-5-(trifluoromethyl)benzyl)amino)octahydrocyclopenta[c]pyrrole-2-carbonyl)-1H-pyrazol-4-yl)acetamide]",,
1 to 10,0 to 25,0.1 to 1,≥ 75,"CS(=O)(=O)Nc1cnn(C(=O)N2CC3CN(Cc4cccc(Cl)c4)CC3C2)c1 (stereo not shown) [Example 7, N-(1-(5-(3-chlorobenzyl)octahydropyrrolo[3,4-c]pyrrole-2-carbonyl)-1H-pyrazol-4-yl)methanesulfonamide]",,
,≥ 75,,50 to 75,"CC(=O)N(C)c1cnn(C(=O)N2C[C@H]3C[C@@H](N(C)Cc4cc(C(F)(F)F)ccc4N4CCCC4)C[C@H]3C2)c1 [Example 168, N-methyl-N-(1-(cis-5-(methyl(2-(pyrrolidin-1-yl)-5-(trifluoromethyl)benzyl)amino)octahydrocyclopenta[c]pyrrole-2-carbonyl)-1H-pyrazol-4-yl)acetamide]",,
≤ 0.1,≥ 75,0.1 to 1,≥ 75,"CS(=O)(=O)Nc1cnn(C(=O)N2CC3CN(Cc4cc(Cl)ccc4C(F)(F)F)CC3C2)c1 (stereo not shown) [Example 275, N-(1-(5-(5-chloro-2-(trifluoromethyl)benzyl)octahydropyrrolo [3,4-c]pyrrole-2-carbonyl)-1H-pyrazol-4-yl)methanesulfonamide]",,
,≥ 75,,0 to 25,"CC(=O)N(C)c1cnn(C(=O)N2CCN(Cc3ccccc3N3CCOCC3)CC2)c1 [Example 216, N-methyl-N-(1-(4-(2-morpholinobenzyl)piperazine-1-carbonyl)-1H-pyrazol-4-yl)acetamide]",,

Compound,IC50 (MAGL) [µM],inhibition at 1 µM (MAGL; 1 μM) [%],IC50 (FAAH) [µM],inhibition at 1 µM (FAAH; 1 μM) [%],MAGL % inh. 1 μM (mouse) (MAGL; 1 μM),FAAH % inh. 1 μM (mouse) (FAAH; 1 μM)
"N-(1-(5-(3-(4- methoxyphenoxy)benzyl) octahydropyrrolo[3,4-c]pyrrole-2- carbonyl)-1H-pyrazol-4-yl)-N- methylacetamide [Example 243]",≤ 0.1,,≤ 0.1,,A (A = % inhibition greater than or equal to 75%),A (A = % inhibition greater than or equal to 75%)
